Where two headings read alike, the source gives them in different places.
How the values were obtained:
[1] = Oral Bioavailability (PO) and Pharmacokinetics Assay; type: in vivo, Sprague-Dawley rats; conditions: rat; for Cmax: read-out: C0 or Cmax (ng/mL): Cmax; for half-life: read-out: T½ (converted)
[2] = Microsomal Stability Assay, human liver microsomes; type: in vitro ADME; conditions: pH 7.4, 1 μM compound, 1.0 mg/mL microsome, NADPH, read-out: HLM t1/2
Protocol: Compounds were also tested for metabolic stability in both rat liver microsomes (RLM) and human liver microsomes (HLM) and their half-life calculated (See Table 5). The assay was performed as follows. The total volume for each incubation was 250 μL. A 100 μM DMSO solution of compound (diluted from 10 mM stock solution) was spiked into 50 mM KH2PO4 (pH 7.4) buffer containing liver microsome at a concentration of 1.0 mg/mL. The reaction was initiated by the addition of 50 μL of 1 mM NADPH. The final concentration of each compound was 1 μM (1% DMSO). The positive controls, phenacetin for CYP1A2, diclofenac for CYP2C9, omeprazole for CYP2C19, dextromethorphan for CYP2D6 and midazolam for CYP3A4 were added to a separate tube with the final substrate concentrations of 1 μM (1% DMSO) for evaluating the enzyme activities in the liver microsomes. At 0, 15, 30 and 60 min, an aliquot of 15 μL reaction mixtures were removed and 200 μL of methanol (with internal standard of 25 ng/mL propranolol) was added to quench the reaction. The resulting mixture was centrifuged and supernatant was used for LC-MS/MS analysis.
The signals for each compound, or the metabolites for the probe substrates and the internal standard were integrated and the peak area ratios to internal standard were generated. Percent parent remaining at a specified timepoint was calculated based on the peak area ratios at time 0 (as 100%) for in vitro metabolic stability studies in liver microsome and hepatocyte. The observed rate constant (kobs) for the metabolism of substrates was calculated by plotting the natural log of percentage substrate remaining versus time of incubation with the slope being kobs. The half-life (T1/2) was calculated according to the following equation: T1/2=0.693/kobs

[3] = Oral Bioavailability (PO) and Pharmacokinetics Assay; type: in vivo, Sprague-Dawley rats; conditions: rat; for AUC(0-t) / clearance / C0 (back-extrapolated initial plasma concentration after IV dose) / Vd: male, Sprague-Dawley, plasma; for C0 (back-extrapolated initial plasma concentration after IV dose): read-out: C0 or Cmax (ng/mL): C0; for Vd: iv, read-out: Vss; for Vd / Vss: 1 mg/kg
Protocol: The pharmacokinetics and oral bioavailability of various compounds was evaluated following IV or PO administration to fasted male Sprague-Dawley rats (N=3/route/dose). Each compound was administered to fasted male Sprague-Dawley rats as a single dose of 1 mg/kg (IV) or 5 mg/kg (PO). For IV dosing, each compound was formulated in 10% DMA/15% Solutol/75% HPβ-CD (20%) as a 1 mg/mL solution for IV (1 mL/kg) and for PO (5 mL/kg) administrations.
Blood samples (0.250 mL) were collected into EDTA tubes then processed to generate plasma samples. Blood samples were collected at pre-dose, 0.083, 0.25, 0.5, 1, 2, 4, 8 and 24 hours post-dose administration. Plasma concentrations of each compound were determined using LC-MS/MS with a lower limit of quantitation of 1.0 ng/mL. The pharmacokinetic parameters were determined by non-compartmental methods using WinNonlin.
The pharmacokinetic parameters of each compound were determined by non-compartmental analysis (Model 201 for IV administration and Model 200 for PO administration) using WinNonlin Version 6.4 (Pharsight, Mountain View, Calif.). The area under the curve from the time of dosing to the last measurable concentration, AUC(0-t), was calculated by the linear trapezoidal rule. The area under the concentration-time curve extrapolated to infinity, AUC(0-∞), was calculated as follows: AUC(0-∞)=AUC(0-t)+Clast/k
Where Clast is the last measurable concentration and k is the first order rate constant associated with the terminal elimination phase, estimated by linear regression of log concentration versus time. The half-life (T1/2) of the terminal elimination phase was estimated based on the following equation: T1/2=0.693/k
K was determined based on at least three timepoints with R^2≥0.9. Additional parameters were calculated as follows: CL=Dose/AUC(0-∞)
Where CL is the clearance of An2H compound in L/hr/kg, Dose is the administered dose in mg/kg. Mean residence time (MRT) was calculated as follows: MRT=AUMC(0-∞)/AUC(0-∞)
Where area under the first moment curve extrapolated to infinity (AUMC(0-∞)) was calculated as follows: AUMC(0-∞)=AUMClast+tlast*Clast/k+Clast/k^2
The steady state volume of distribution (Vss) was calculated as follows: Vss=CL×MRT.
The oral bioavailability based on AUC(0-t) was calculated as follows: F (%)=AUCPO/AUCIV×DoseIV/DosePO×100. For IV administration, the initial concentration, Co is reported and is an extrapolated value. For PO administration, the maximum concentration, Cmax is report and is an observed value.

[4] = tested on: subcutaneous HCT-116 (colon cancer) xenograft; assay: In Vivo Cancer Xenograft Assay, HCT-116; set-up: species or system nude mice; conditions: 5 or 10 mg/kg daily IP, tumor volume to day 26
Protocol: Compound F was evaluated for in vivo therapeutic efficacy in the treatment of subcutaneous HCT-116 (colon cancer) and Calu-6 (lung cancer) xenograft models in nude mice.
Each mouse was inoculated subcutaneously at the flank region with either HCT-116 or Calu-6 tumor cells ([…]) in 0.1 ml of 1×PBS mixed with Matrigel (1:1) for tumor development and xenotransplantation.
Twenty (20) animals with approx […] tumors were selected for HCT-116 follow up experiment and randomly placed into Groups 1, 2, 3, and 4, wherein Group 1 was for mice administered with a vehicle negative control; Group 2 was positive control of Mice treated with Bevacizumab at 5 mg/kg every three days; Group 3 was mice treated with 5 mg/kg of Compound f daily for up to 20 days; and Group 4 was mice treated with 10 mg/kg of Compound F daily for up to 20 days. The vehicle with or without drug was administered to the mouse by intraperitoneal injection. […]
After tumor cells inoculation, the animals were checked daily for morbidity and mortality. […] Death and observed clinical signs were recorded. Tumor volumes were measured every three days in two dimensions using an electronic caliper, and the volume data are expressed in mm^3 using the formula: V=0.5 a×b2 where a and b are the long and short diameters of the tumor, respectively. Tumor volume average was then recorded for each day for groups 1-4 until day 26. […]

[5] = male, Sprague-Dawley, plasma, PO 5 mg/kg
[6] = male, Sprague-Dawley, plasma, PO 5 mg/kg, read-out: F (%) oral bioavailability
[7] = male, Sprague-Dawley, plasma, iv, 1 mg/kg, IV bolus 1 mg/kg
[8] = male, Sprague-Dawley, plasma, po, 5 mg/kg, PO 5 mg/kg
[9] = male, Sprague-Dawley, plasma, IP 3 mg/kg

Row | Compound | Tmax [1, 5] [h] | Cmax [1, 5] [ng/mL] | bioavailability [1, 6] [%] | half-life [1, 7] [h] | half-life [1, 8] [h] | half-life at 1 μM [2] [h] | AUC(0-t) ([3]; IV bolus 1 mg/kg) [ng·h/mL] | clearance ([3]; IV bolus 1 mg/kg) [mL/min/kg] | C0 (back-extrapolated initial plasma concentration after IV dose) ([3]; IV bolus 1 mg/kg) [ng/mL] | AUC(0-t) ([3]; PO 5 mg/kg) [ng·h/mL] | Vd ([3]; IV bolus 1 mg/kg) [L/kg] | Vss ([3]; IV bolus 1 mg/kg) [L/kg] | Oral Bioavilability (PO PK) F [1] | further results
1 | O=C(Nc1nc(NC(=O)c2ccccc2)n(-c2ccccc2)n1)c1ccccc1 [Compound A, N,N′-(1-phenyl-1H-1,2,4-triazole-3,5-diyl)dibenzamide] | 0.417 | 249 | 6.85 | 0.85 | 1.6 | 2.52 | 1100 | 15.7 | 4520 | 371 | 0.38 | 0.381 |  | bioavailability ([1]; male, Sprague-Dawley, plasma, IV bolus 1 mg/kg, read-out: F (%)): 100%; T½ ([1]; PO 5 mg/kg, 5 mg/kg): 1.62 h
2 | O=C(/C=C/c1ccccc1)Nc1nc(NC(=O)c2ccccc2)nn1-c1ccccc1 [Compound C, N-(5-cinnamamido-1-phenyl-1H-1,2,4-triazol-3-yl)benzamide] | 0.38 | 50.5 | 2.4 | 0.71 | 2.3 | 1.3 | 1030 | 16.6 | 3980 | 114 | 0.42 | 0.416 | F = 2% | 
3 | Cc1ccccc1C(=O)Nc1nc(NC(=O)c2ccccc2C)n(-c2ccccc2)n1 [Compound F, 2-methyl-N-[5-[(2-methylbenzoyl)amino]-1-phenyl-1,2,4-triazol-3-yl]benzamide] |  |  |  | 2.5 |  | 9.63 | 4270 | 4.03 | 5980 |  | 0.406 |  |  | AUC(0-t) [1, 9]: 9590 ng·h/mL; Tmax [1, 9]: 1.3 h; Cmax [1, 9]: 1470 ng/mL; bioavailability ([1]; male, Sprague-Dawley, plasma, IP 3 mg/kg, read-out: F systemic bioavailability): 75%; half-life ([1]; male, Sprague-Dawley, plasma, ip, 3 mg/kg, IP 3 mg/kg): 3.2 h; delay of subcutaneous HCT-116 tumor growth [4]: effective of delaying growth
4 | Cc1ccccc1C(=O)Nc1nc(NC(=O)c2ccccc2)n(-c2ccccc2)n1 [Compound H] | 1.33 | 91 | 6.2 | 0.69 | 1.7 |  | 1370 | 12.2 | 6740 | 410 | 0.4 | 0.401 | F = 6% | 
5 | Cc1ccccc1C(=O)Nc1nc(NC(=O)c2ccccc2)nn1-c1ccccc1 [Compound K, N-(5-benzamido-2-phenyl-1,2,4-triazol-3-yl)-2-methyl-benzamide] | 0.42 | 52.4 | 4 | 0.6 | 2.1 |  | 902 | 18.4 | 2120 | 172 | 0.71 | 0.707 | F = 4% | 
6 | O=C(Nc1nc(Nc2ncnc3ccccc23)n(-c2ccccc2)n1)c1ccccc1 [Compound L, N-[1-phenyl-5-(quinazolin-4-ylamino)-1,2,4-triazol-3-yl]benzamide] |  |  |  |  |  | 0.642 |  |  |  |  |  |  |  | 
7 | O=C(/C=C/c1ccccc1)Nc1nc(NC(=O)c2ccccc2)nn1-c1ccccn1 [Compound U1] |  |  |  |  |  | 0.115 |  |  |  |  |  |  |  | 

Reference: patent US10308617B2, “Triazole benzamide derivatives and the compositions and methods of treatment regarding the same” (An2H Discovery Limited, priority 2016, dated 2019)
